Reference: PMC5983811, “Protein Tyrosine Phosphatase 1B Inhibition and Glucose Uptake Potentials of Mulberrofuran G, Albanol B, and Kuwanon G from Root Bark of Morus alba L. in Insulin-Resistant HepG2 Cells: An In Vitro and In Silico Study” (International Journal of Molecular Sciences, 2018)

Key:
[1] = target: T1, PTP1B (human recombinant) (Homo sapiens, UniProt P18031); experiment: PTP1B inhibitory assay (pNPP substrate) and kinetic study; format: biochemical; conditions: for Ki: Dixon plot, read-out: Protein Tyrosine Phosphatase 1B Ki; for Protein Tyrosine Phosphatase 1B Inhibition Type: Lineweaver-Burk plot; for IC50: pNPP substrate, mean ± SEM of triplicate experiments, read-out: Protein Tyrosine Phosphatase 1B IC50
T1 construct: purchased Biomol International LP (Plymouth Meeting, PA, USA)
T1 sequence (P18031 1-435): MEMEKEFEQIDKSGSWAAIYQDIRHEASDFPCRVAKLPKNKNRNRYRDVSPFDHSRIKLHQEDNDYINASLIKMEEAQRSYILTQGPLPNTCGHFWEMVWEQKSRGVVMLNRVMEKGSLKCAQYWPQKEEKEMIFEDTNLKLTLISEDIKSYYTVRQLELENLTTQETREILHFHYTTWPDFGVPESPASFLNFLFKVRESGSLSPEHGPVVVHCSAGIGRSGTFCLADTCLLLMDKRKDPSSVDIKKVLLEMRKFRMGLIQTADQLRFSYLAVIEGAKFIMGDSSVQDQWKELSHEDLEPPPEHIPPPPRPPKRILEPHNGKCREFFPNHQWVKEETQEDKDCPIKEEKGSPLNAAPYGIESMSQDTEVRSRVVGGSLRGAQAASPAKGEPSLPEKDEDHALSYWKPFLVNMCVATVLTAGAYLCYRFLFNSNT
Description: PTP1B inhibitory activity was evaluated using pNPP [44]. Recombinant PTP1B enzyme (0.5 units diluted in PTP1B reaction buffer) was added to a plate with or without sample. The plate was pre-incubated at 37 °C for 10 min, and then substrate (2 mM pNPP) was added. Following incubation at 37 °C for 15 min, the enzymatic reaction was terminated by addition of 10 M NaOH. The absorbance was measured at 405 nm using a microplate spectrophotometer (Molecular Devices, Sunnyvale, CA, USA).
(§1) Lineweaver–Burk plots for inhibition of PTP1B were obtained in the presence of various concentrations of the test compounds (0, 0.18, 0.44 and 1.78 μM for 1; 0, 0.27, 0.54, and 1.07 μM for 2; 0, 0.87, 1.44, and 2.89 μM for 3). Similarly, for the inhibition of α-glucosidase, text concentrations used were 0, 0.71, 1.07, and 1.78 μM for 1; 0, 0.36, 0.9, and 1.79 μM for 2 and 0, 0.72, 2.88, and 5.77 μM for 3. The enzymatic procedure consisted of the same aforementioned assay method. The inhibition constants (Ki) were determined via interpretation of the Dixon plots, where the value of the x-axis implies −Ki.

[2] = Cytotoxicity in HepG2 cells (MTT assay); format: cell-based; conditions: human, read-out: viable cell %
Description: In order to determine safe concentrations for cell experiments, the cytotoxicity of our test compounds in HepG2 cells was evaluated using an 3-(4,5-dimethylthiazol-2-yl)-2,5-diphenyltetrazolium bromide (MTT) assay. […] However, at 10 µM, the level of toxicity was high for 1 (viable cell %; 36), followed by 2 (viable cell %; 73) and 3 (viable cell %; 85). Therefore, 1.25, 2.5, and 5 µM concentrations were used in further cell experiments.
(§2) HepG2 (human hepatocarcinoma) cells, purchased from the American Type Culture Collection (HB-8065; Manassas, VA, USA), were maintained in 10% FBS MEM at 37 °C in a humidified atmosphere with 5% CO2. Medium was changed every 48 h. Cytotoxicity was evaluated using the MTT assay. Following the method previously described, insulin-resistant HepG2 cell model was established. All the other experiment conditions and procedures were similar to those reported in our previous paper.

PTP1B expression = PTP1B expression level in insulin-resistant HepG2 cells (Western blot); format: cell-based, human
Description: Insulin-resistant HepG2 cells were exposed to different concentrations of 1–3 or rosiglitazone (10 μM) in 24-well plates. After 24 h of incubation with samples, the media in the wells was replaced with 100 nM insulin diluted in SFMEM and incubated at 37 °C for 30 min. Cells were then washed twice with ice-cold PBS, collected, and lysed with sample buffer (50 mM HEPES, pH 7.5, 150 mM NaCl, 2.5 mM EDTA, 0.5% NP-40, 1 mM PMSF, 1 mM DTT, 0.2% aprotinin, 0.5% leupeptin, 20 mM NaF, and 1 mM Na3VO4). Protein was quantified by the modified Bradford protein assay kit using BSA as a standard. Total protein (50 μg) was electrophoresed on sodium dodecyl sulfate-polyacrylamide gels (Bio-Rad, Hercules, CA, USA) and then transferred to polyvinylidene difluoride (PVDF) membranes (Immobilon-P; Millipore, Burlington, MA, USA) using the Pierce G2 Fast Blotter (Thermo Fisher Scientific Inc., Fair Lawn, NJ, USA) at 100 V for 60 min in a standard semi-dry system. Membranes were blocked in blocking buffer (5% skim milk powder in TBS-Tween buffer containing 10 mM Tris, 100 mM NaCl, and 0.1% Tween-20, pH 7.4) and incubated overnight with primary antibodies at 4 °C on a shaker, followed by incubation with appropriate secondary antibodies for 2 h at room temperature. The membranes were washed three times with TBST (3 × 10 min each) and the protein bands were visualized with the Supersignal West Pico Chemiluminescence Substrate (Pierce, Rockford, IL, USA) on X-ray films (Kodak, Rochester, NY, USA) and quantitated using CS analyzer software (Atto Corp., Tokyo, Japan).

α-glucosidase = experiment: α-Glucosidase inhibitory assay (pNPG substrate) and kinetic study; format: biochemical; conditions: for Ki: Dixon plot; for α-Glucosidase Inhibition Type: Lineweaver-Burk plot; for IC50: pNPG substrate, mean ± SEM of triplicate experiments
Description: The enzyme inhibition study was carried out spectrophotometrically using the procedure previously reported. The α-glucosidase activity was determined by measuring release of […] at 405 nm using a microplate spectrophotometer (Molecular Devices).
as §1

[3] = tested on: insulin-resistant HepG2 cells; experiment: Glucose uptake assay (2-NBDG) in insulin-resistant HepG2 cells; format: cell-based, human
Description: as §2
The glucose uptake rate in insulin-resistant HepG2 cells was assessed using the fluorescent D-glucose analog 2-NBDG. Once the induction of insulin resistance was accomplished, cell solutions in the wells were substituted with different concentrations of 1–3 or a positive control, rosiglitazone (10 µM), prepared in serum-free MEM (SFMEM) in respective groups. After 24 h incubation with samples, the media in the wells was replaced with 100 nM insulin diluted in SFMEM and incubated for 30 min. Cells were then incubated with 40 μM 2-NBDG for 30 min and washed with ice-cold PBS. The fluorescence intensity of 2-NBDG was measured on a fluorescence microplate reader (FL ×800, Bio-Tek Instruments, Inc., Winooski, VT, USA) at 485 nm excitation and 528 nm emission wavelengths. Six replicate wells were established, and each experiment was repeated three times.

Ki [1] [µM]	Protein Tyrosine Phosphatase 1B Inhibition Type [1]	IC50 [1] [µM]	Ki (α-glucosidase) [µM]	α-Glucosidase Inhibition Type (α-glucosidase)	IC50 (α-glucosidase) [µM]	SMILES	viability at 10 µM [2] [%]	PTP1B expression (PTP1B expression; concentration dependent)	relative % glucose uptake ([3]; 10 µM) [%]	PTP1B expression (PTP1B expression; 10 μM)	relative glucose uptake percentage ([3]; 5 µM) [%]	PTP1B expression (PTP1B expression; 2.5 and 5 μM)
1.98	Mixed type	2.26 ± 0.03	2.51	Mixed type	2.35 ± 0.03	CC(C)=CCc1c(-c2ccc(O)cc2O)oc2c([C@H]3C=C(C)C[C@@H](c4ccc(O)cc4O)[C@@H]3C(=O)c3ccc(O)cc3O)c(O)cc(O)c2c1=O [Compound 3, kuwanon G]	85	downregulated the expression towards normal	–	–	–	–
1.02	–	0.8 ± 0.02	–	–	–	Cc1cc2c3c(c1)-c1c(O)cc(-c4cc5ccc(O)cc5o4)cc1O[C@@]3(c1ccc(O)cc1O)Oc1cc(O)ccc1-2 [Compounds 2]	73	–	–	–	–	–
–	–	–	–	–	–	CN(CCOc1ccc(CC2SC(=O)NC2=O)cc1)c1ccccn1 (stereo not shown) [rosiglitazone, reference compound]	–	–	123	declined	–	–
0.7	Mixed type	0.57 ± 0.04	1.2	Mixed type	1.67 ± 0.02	CC1=C[C@H]2c3c(O)cc(-c4cc5ccc(O)cc5o4)cc3O[C@@]3(c4ccc(O)cc4O)Oc4cc(O)ccc4[C@H](C1)[C@@H]23 [Compound 1, mulberrofuran G]	36	–	–	–	140	diminished the PTP1B expression almost completely
